Test system: Mv4-11 cells
Test: Inhibition of the proliferation of Mv4-11 cells (CCK8)
Format: cell-based
Method: The inhibition effect of the compounds of the present disclosure on the proliferation of Mv4-11 cells (ATCC:CRL-9591™) in vitro was determined by the following method:
1) Cell inoculation: Mv4-11 cells with good growing state in logarithmic growth phase were inoculated into a 96-well plate at 20000 cells per well and 50 uL, and cultured at 37° C. and under 5% CO2 condition for 2-4 h.
2) Administration: The compound was diluted with 1640 medium containing 10% FBS and 1% PS: 0.4 uL of the compound with an initial concentration of 1 mM was placed in a dilution plate, each added with 199.6 uL of the above culture medium, and gradiently diluted 4-fold, so that the final concentration in the added cell was 1000, 250, 62.5, 15.625, 3.91, 0.98, 0.24, 0.06 nM. 50 µL of the medium containing the compound was sequentially added, and it was placed in a 37° C., 5% CO2 cell incubator for 48 hours.
3) Detection: 10uL CCK8 (Dojindo, CK 04) solution was added to each well, incubated in 37° C. 5% CO2 cell incubator for 2 hours, and then the OD450 value was read by Synegry H1(BioTek) multimode microplate reader.
4) Calculation: The IC50 value was calculated using Graphpad prism 5.0 software according to the concentration of the compound and the corresponding signal value.

SMILES | IC50 (Homo sapiens, MV4-11, 48 h) [nM] | IC50 (48 hours) [nM]
CC1(C)Cc2c(-c3cc(NC(=O)Cc4cccc(NC(=O)CC#N)c4)ncc3Cl)cnn2C1 [Compound 9, N-(5-chloro-4-(5,5-dimethyl-5,6-dihydro-4 H-pyrrolo[1,2-b]pyrazol-3-yl)pyridin-2-yl) -2-(3-(2-cyanoacetylamino)phenyl)acetamide] | 13 | 
CC1(C)Cc2c(-c3cc(NC(=O)Cc4cccc(C#N)c4)ncc3Cl)cnn2C1 [Compound 4, N-(5-chloro-4-(5,5-dimethyl-5,6-dihydro-4 H-pyrrolo[1,2-b]pyrazol-3-yl)pyridin-2-yl) -2-(3-cyanophenyl)acetamide] | 10.7 | 
C[C@H](C(=O)Nc1cc(-c2cnn3c2CC(C)(C)C3)c(Cl)cn1)c1cccc(C(N)=O)c1 [Compound 2-1, (S)-3-(1-((5-chloro-4-(5,5-dimethyl-5,6-di hydro-4H-pyrrolo[1,2-b]pyrazol-3-yl)pyridin-2-yl)amino)-1-oxopropan-2-yl)benzamide (assumed)] | > 1000 | 
CC1(C)Cc2c(-c3cc(NC(=O)Cc4ccncc4)ncc3Cl)cnn2C1 [Compound 5, N-(5-chloro-4-(5,5-dimethyl-5,6-dihydro-4 H-pyrrolo[1,2-b]pyrazol-3-yl)pyridin-2-yl) -2-(pyridin-4-yl)acetamide] | 26 | 

Now from value to compound:

IC50 (Homo sapiens, MV4-11, 48 h) [nM] | IC50 (48 hours) [nM] | SMILES
850 |  | C=CC(=O)NCc1ccc(-c2ccc([C@@H](C)C(=O)Nc3cc(-c4cnn5c4CC(C)(C)C5)c(Cl)cn3)cn2)cn1 [Compound 20-2, (R)-N-((5-(1-((5-chloro-4-(5,5-dimethyl-5,6-dihydro-4H-pyrrolo[1,2-b]pyrazol-3-yl)pyridin-2-yl)amino)-1-oxopropan-2-yl)-[2,3′ -bipyridin]-6′-yl)methyl)acrylamide (assumed)]
893 |  | C[C@H](C(=O)Nc1cc(-c2cnn3c2CC(C)(C)C3)c(Cl)cn1)c1cccnc1 [Compound 11-1, (S)-N-(5-chloro-4-(5,5-dimethyl-5,6-dihydro-4H-pyrrolo[1,2-b]pyrazol-3-yl)pyridin-2-yl)-2-(pyridin-3-yl)propionamide (assumed)]
469 |  | COc1cc([C@@H](C)C(=O)Nc2cc(-c3cnn4c3CC(C)(C)C4)c(Cl)cn2)ccn1 [Compound 16-2, (R)-N-(5-chloro-4-(5,5-dimethyl-5,6-dihydro-4H-pyrrolo[1,2-b]pyrazol-3-yl)pyridin-2-yl)-2-(2-methoxypyridin-4-yl)propionamide (assumed)]
 | 13.9 | C[C@H](C(=O)Nc1cc(-c2cnn3c2CC(C)(C)C3)c(Cl)cn1)c1ccc(-c2cccnc2)nc1 [Compound 19-1, (S)-2-([2,3′-bipyridin]-5-yl)-N-(5-chloro-4-(5,5-dimethyl-5,6-dihydro-4H-pyrrolo[1,2-b]pyrazol-3-yl)pyridin-2-yl)propionamide (assumed)]
161 |  | C[C@@H](C(=O)Nc1cc(-c2cnn3c2CC(C)(C)C3)c(Cl)cn1)c1ccnc(C#N)c1 [Compound 15-2, (R)-N-(5-chloro-4-(5,5-dimethyl-5,6-dihydro-4H-pyrrolo[1,2-b]pyrazol-3-yl)pyridin-2-yl)-2-(2-cyanopyridin-4-yl)propionamide (assumed)]
136 |  | CC(=O)Nc1cccc([C@@H](C)C(=O)Nc2cc(-c3cnn4c3CC(C)(C)C4)c(Cl)cn2)c1 [Compound 14-2, (R)-2-(3-acetylaminophenyl)-N-(5-chloro-4-(5,5-dimethyl-5,6-dihydro-4H-pyrrolo[1,2-b]pyrazol-3-yl)pyridin-2-yl)propionamide (assumed)]

Reference: patent US20230219961A1, “Pyridine acetamide derivative serving as CDK inhibitor, and preparation method therefor and use thereof” (Suzhou AlphaMa Biotechnology Co., Ltd., priority 2020, published 2023)
